From ChEMBL document CHEMBL3616452 (Eur J Med Chem, 2015) come the findings set out here.

A short description of assay [1]: Antiviral activity against Influenza A virus (A/WSN/1933(H1N1)) assessed as virus-mediated cytopathic effect in MDCK cells after 48 to 72 hrs. The class given is functional, cell-based.
Assay [2] relates to MDCK. Nature of the assay: Inhibition of nucleoprotein synthesis in Influenza A virus (A/WSN/1933(H1N1)) infected in MDCK cells at 10.0 uM dosed post-infection by fluorescence analysis. It counts as functional, organism-based.
Assay [3] deals with MDCK. The assay is described as follows: Inhibition of nucleoprotein synthesis in Influenza A virus (A/WSN/1933(H1N1)) infected in MDCK cells at 15.0 uM by immunofluorescence assay. It counts as functional, cell-based.
The test system of assay [4] is MDCK. Nature of the assay: Inhibition of nucleoprotein synthesis in Influenza A virus (A/WSN/1933(H1N1)) infected in MDCK cells at 3.0 uM by immunofluorescence assay. The class given is functional, cell-based.
The nature of assay [5]: Antiviral activity against wild-type Influenza A virus (A/WSN/1933(H1N1)) assessed as virus-mediated cytopathic effect in MDCK cells. It counts as functional, cell-based.
Assay [6] has as its system MDCK. The assay is described as follows: Inhibition of nucleoprotein synthesis in Influenza A virus (A/WSN/1933(H1N1)) infected in MDCK cells by fluorescence analysis. It counts as functional, cell-based.
A further assay has as its target Nucleoprotein (Influenza A virus (strain A/Wilson-Smith/1933 H1N1), UniProt P15682). Nature of the assay: Binding affinity to Influenza A virus (A/WSN/1933(H1N1)) nucleoprotein transfected in 293T cells assessed as inhibition of RNA dependent RNA polymerase activity. It counts as cell-based.
In assay [7] the test system is MDCK. The assay is described as follows: Inhibition of nucleoprotein synthesis in Influenza A virus (A/WSN/1933(H1N1)) infected in MDCK cells at 0.3 and 1 uM dosed > 0.5 hrs post infection by fluorescence analysis. The class given is functional, organism-based.
The test system of assay [8] is MDCK. The assay is described as follows: Inhibition of nucleoprotein synthesis in Influenza A virus (A/WSN/1933(H1N1)) infected in MDCK cells at 0.3 uM dosed 0.5 hrs post infection by fluorescence analysis. It counts as functional, organism-based.
Assay [9] has as its system MDCK. The assay is described as follows: Inhibition of nucleoprotein synthesis in Influenza A virus (A/WSN/1933(H1N1)) infected in MDCK cells at 1.0 uM dosed 0.5 hrs post infection by fluorescence analysis. The class given is functional, organism-based.
Assay [10] deals with MDCK. The assay is described as follows: Antiviral activity against wild-type Influenza A virus (A/WSN/1933(H1N1)) assessed as virus-mediated cytopathic effect in MDCK cells at 0.3 uM. It counts as functional, cell-based.

Active and inactive are the calls of the source. The calls are words filed in the database; no cut-off is given here.

Nucleoprotein, sequence (P15682 whole entry): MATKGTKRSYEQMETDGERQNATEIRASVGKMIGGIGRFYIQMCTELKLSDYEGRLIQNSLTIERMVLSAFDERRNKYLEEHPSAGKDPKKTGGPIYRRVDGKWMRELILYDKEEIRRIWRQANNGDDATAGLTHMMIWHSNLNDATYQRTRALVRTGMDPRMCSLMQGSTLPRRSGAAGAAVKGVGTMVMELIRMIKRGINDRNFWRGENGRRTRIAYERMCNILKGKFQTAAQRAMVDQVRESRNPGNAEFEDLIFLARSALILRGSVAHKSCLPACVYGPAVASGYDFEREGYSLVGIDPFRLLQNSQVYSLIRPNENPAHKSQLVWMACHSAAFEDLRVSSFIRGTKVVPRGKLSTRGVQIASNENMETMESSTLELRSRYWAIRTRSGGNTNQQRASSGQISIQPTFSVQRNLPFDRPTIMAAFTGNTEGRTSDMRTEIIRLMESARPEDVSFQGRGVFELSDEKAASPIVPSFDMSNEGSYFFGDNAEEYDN

Turning to `Cn1c(=O)c2c(-c3ccccc3)n3c(c2n(C)c1=O)C(c1ccccc1Cl)OCC3` (centres undefined), the EC50 in assay [1] is more than 50 µM.

As for `Cn1c(=O)c2c(-c3ccccc3)n3c(c2n(C)c1=O)C(c1ccccc1F)OCC3` (centres undefined), the EC50 in assay [1] was more than 50 µM.

As to `Cn1c(=O)c2c(-c3ccccc3)n3c(c2n(C)c1=O)C(c1ccc(Br)o1)OCC3` (centres undefined), in [1], the EC50 is more than 50 µM.

Take `Cn1c(=O)c2c(-c3ccccc3)n3c(c2n(C)c1=O)C(c1ccccc1F)OCC3(C)C` (centres undefined): the EC50 in assay [1] turned out to be 1 µM; in [5], 2.3 µM. For the same molecule, the inhibition result with MDCK [2] and in the assay on MDCK [3] was “Active” each time. In addition, in the assay on MDCK [4], the inhibition result is “inactive”. The inhibition entry in the assay on MDCK [6] (TDE = time-dependent effect) was “tde”. Further, at Nucleoprotein, the IC50 came out at 4.9 µM.

As to `Cn1c(=O)c2c(-c3ccccc3)n3c(c2n(C)c1=O)C(c1cccs1)OCC3` (centres undefined), the EC50 in assay [1] was more than 50 µM.

Consider `Cn1c(=O)c2c(-c3ccccc3)n3c(c2n(C)c1=O)C(c1ccco1)OCC3` (centres undefined), for which the EC50 in assay [1] was more than 50 µM.

Take `CCCC1OCCn2c(-c3ccccc3)c3c(=O)n(C)c(=O)n(C)c3c21` (centres undefined): the EC50 in assay [1] is more than 50 µM.

On to `Cn1c(=O)c2c(-c3ccccc3)n3c(c2n(C)c1=O)C(c1ccccc1)OCC3` (centres undefined), for which the EC50 in assay [1] is more than 50 µM.

Take `Cn1c(=O)c2c(-c3ccccc3)n3c(c2n(C)c1=O)C(C1CCCCC1)OCC3(C)C` (centres undefined): in [1], the EC50 is more than 50 µM.

On to `COc1ccc(C2OCC(C)(C)n3c(-c4ccccc4)c4c(=O)n(C)c(=O)n(C)c4c32)cc1` (centres undefined), for which, in assay [1], the EC50 was more than 50 µM.

As to `Cc1onc(-c2ccccc2Cl)c1C(=O)N1CCN(c2ccc([N+](=O)[O-])cc2)CC1`, the inhibition entry in the assay with MDCK [7] is “inactive”. In addition, the inhibition result in the assay with MDCK [8], in the assay with MDCK [9] and with MDCK [6] was “Active” throughout. In addition, in the assay on MDCK [10], the result was Active. Besides, the IC50 on Nucleoprotein was 0.23 µM.

Consider `Cn1c(=O)c2c(-c3ccccc3)n3c(c2n(C)c1=O)C(c1ccccc1)OCC3(C)C` (centres undefined), for which, in assay [1], the EC50 is 5.4 µM.

Regarding `CCCn1c(=O)c2c(-c3ccccc3)n3c(c2n(CCC)c1=O)C(C1CCCCC1)OCC3` (centres undefined), the concentration for a half-maximal effect (EC50) in [1] was more than 50 µM.

On to `Cn1c(=O)c2c(-c3ccccc3)n3c(c2n(C)c1=O)C(c1cccs1)OCC3(C)C` (centres undefined), for which the EC50 in [1] turned out to be 6.8 µM.

Consider `Cn1c(=O)c2c(-c3ccccc3)n3c(c2n(C)c1=O)C(c1ccc(C(F)(F)F)cc1)OCC3(C)C` (centres undefined), for which the EC50 in assay [1] is more than 50 µM.

On to `Cn1c(=O)c2c(-c3ccccc3)n3c(c2n(C)c1=O)C(C1CCCC1)OCC3` (centres undefined), for which, in [1], the EC50 is more than 50 µM.

As to `Cn1c(=O)c2c(-c3ccccc3)n3c(c2n(C)c1=O)C(C1CCCCC1)OCC3` (centres undefined), the EC50 in assay [1] is more than 50 µM.

As to `Cn1c(=O)c2c(-c3ccccc3)n3c(c2n(C)c1=O)C(c1ccccc1Cl)OCC3(C)C` (centres undefined), the EC50 in assay [1] was 8 µM.
